Laboratory results: patent US10532041B2, “Formulation comprising glycopyrrolate, method and apparatus” (Vectura Limited, priority 2014, dated 2020)

Assays:
[1] = Particle size distribution, MALVERN MASTERSIZER 3000, Aero S dry dispersion method at 4 Bar; format: physicochemical; conditions: unmicronised source powder
Protocol: The particle size distribution for unmicronised glycopyrrolate was determined by MALVERN MASTERSIZER analysis (MALVERN MASTERSIZER® 3000, using the Aero S dry dispersion method at 4 Bar) and found to be D10=11.3 μm, D50=98.0 μm, D90=281 μm (see FIG. 1).
The particle size distributions for Formulation 1 (D10=0.283 μm, D50=1.66 μm, D90=5.40 μm) and Formulation 2 (D10=0.270 μm, D50=1.41 μm, D90=3.66 μm were determined by MALVERN MASTERSIZER® analysis (MALVERN MASTERSIZER® 3000, using the Aero S dry dispersion method at 4 Bar). These are reported in FIGS. 4 and 8 respectively and Table 1 below.
The particle size distribution for the micronized glycopyrrolate formulations was determined by MALVERN MASTERSIZER® analysis (MALVERN MASTERSIZER® 3000, using the Aero S dry dispersion method at 4 Bar and a feed rate of between 30-40%). The optical properties used included a refractive index of 1.52 and an absorption value of 1.0.

[2] = Particle size distribution, MALVERN MASTERSIZER 3000, Hydro MV wet dispersion (wet analysis); format: physicochemical; conditions: wet analysis method; starting material before milling
Protocol: The particle size distribution for the micronized glycopyrrolate formulations was determined by MALVERN MASTERSIZER® 3000 using the Hydro MV wet dispersion unit as follows: the dispersion unit was filled with iso-octane (2,2,4-trimethylpentane). The pump speed was set to 3000 rpm. Ten millilitres of 0.1% lecithin in iso-octane was added to approximately 10 mg of the micronized glycopyrrolate formulation, this pre-dispersion was then sonicated for 3 minutes using a Sonopuls sonic probe at 50% intensity. The dispersed particles were added to the dispersion unit to reach an obscuration of 5-15%. The optical properties used included a refractive index of 1.52 and an absorption value of 1.0 for the glycopyrrolate, and a refractive index of 1.45 and an absorption value of 1.0 for the magnesium stearate and a refractive index of 1.391 for the iso-octane. Six replicates were performed per measurement.

D10 [1]	D50 [1]	D90 [1]	cumulative fraction under 5 μm ([1]; stored sealed)	Compound	D10 [2]	D50 [2]	D90 [2]
11.3 μm	98.0 μm	281 μm	4.68%	C[N+]1(C)CCC(OC(=O)C(O)(c2ccccc2)C2CCCC2)C1 (stereo not shown) [unmicronised glycopyrrolate, glycopyrrolate]	20.6 μm	148.7 μm	409.7 μm
–	–	–	–	magnesium stearate	2.8 μm	8.8 μm	27.4 μm
